Data on two molecules can be found in US7618790B2, “Method for NGF assay for in vitro diagnosis of breast cancer and therapeutic use” (Biomerieux, priority 2002, dated 2009).

The test system of assay [1] is PC12 cells. In words: Coculture of NGF-sensitive PC12 cells with MCF-7 breast cancer cells (neurite differentiation). It is filed as cell-based. As to the method: To do this, cells which develop in the presence of NGF, i.e. PC12 cells, were cocultured with MCF-7 breast cancer cells, as described in point 1.1 above, or else with NBEC cells, as described in point 1.1 above, as a control.
The PC12 cells were cultured beforehand at 37° C. in a 5% CO2 atmosphere, in Dulbecco's modified minimum essential medium (DMEM) supplemented with 3 g/l of sodium bicarbonate, 4 mM of L-glutamine, 10% of fetal calf serum, 5% of horse serum and 100 units/ml of penicillin/streptomycin.
The coculturing was carried out with Transwell® tissue culture-treated polycarbonate plates (12 mm in diameter and 12 μm pore size). An initial equilibrating period was observed by adding the media to the central well of the plate, and then to the Transwell® insert, which operation was followed by incubation at 37° C. for 3 h.
The PC12 cells were seeded in 12-well plates coated with collagen for 24 h in order to ensure correct attachment to the culture plates. The MCF-7 or NCBE cells were seeded inside the Transwell® insert, corresponding to the upper compartment, in the complete medium for 24 h. After this time, each cell line was rinsed three times with serum-free medium and was incubated in a withdrawal medium. […] The percentage of cells bearing neurites, defined as cells with one or more neurite extensions twice the length of the cell body, was counted. […]

Assay [2] has as its system MCF-7 cells. In words: Growth of MCF-7 cancer cells (cell count with hemocytometer). It is filed as cell-based, human. The settings on record: serum-free basic medium, 24-72 h, FIG. 4A. The protocol:
The effect of the blocking antibody MAB-256 (above) and of the inhibitor K-252a on the growth of MCF-7 cells was studied. To do this, the cells were seeded in a proportion of 2×10^4 cells/ml in 35 mm dishes in complete medium. After having reached 40% confluency, the cells were washed twice and were left without nutrients in a serum-free medium containing fibronectin (2 μg/ml) and transferrin (30 μg/ml) for 3 h. The following hour, the medium was replaced with 2 ml of the same medium containing the inhibitor K-252a or the antibody […] at various concentrations in order to study the effect of the pharmacological inhibitor or of the blocking inhibitor on the base line growth level. After treatment for 24, 36, 48 and 72 h, the number of cells was determined, after trypsinization of the monolayer culture with a solution of 0.25% trypsin/EDTA, using a hemocytometer. An anti-mouse monoclonal antibody ([…], Sigma), i.e. an irrelevant antibody, was also used in order to determine the specificity of the blocking antibody.

For the molecule `COC(=O)[C@@]1(O)C[C@H]2O[C@]1(C)n1c3ccccc3c3c4c(c5c6ccccc6n2c5c31)C(=O)NC4` [K-252a], the “PC12 cell differentiation (cells bearing neurites)” value in assay [1] (coculture of MCF-7 and PC12 cells, 48 h, FIG. 2B) is on record as “strong inhibition of the PC12 cell differentiation”. For the same molecule, in assay [2], the “growth of the MCF-7 cells (number of cells)” value was “decreases”.
For the molecule “NGF: nerve growth factor added to the medium as positive control for PC12 differentiation”, the “PC12 cell differentiation (neurite development)” value in assay [1] (culture of PC12 cells alone as a control, in the presence of NGF, FIG. 2B photograph 3) is reported as “neurite development due to differentiation is observed”.
